The source of these data is US12428416B2 (California Institute of Technology, priority 2018, dated 2025).

Data set [1] relates to phosphorylated RSK (pRSK) in M275 cells. As to the kind of experiment: Western Blot for Total and pRSK. Format: cell-based, human. The note with it: treatment for 4.5 hours and 24 hours, 200 nM. As for the experimental part:
Western Blot for Total and pRSK
For Western blot assays (see FIG. 14), protein lysates were obtained from either the M275 or M202 human melanoma cancer cell lines. For assay, cells were plated on 10 cm dishes and treated 24 hours later with either 200 nM of test compound in DMSO or DMSO control for 4.5 or 24 hours. After the treatment period, cells were washed twice in ice-cold PBS and lysed for 15 minutes at 4° C. using a mild lysis buffer (Cell Signaling Technology) containing a mixture of protease inhibitors (Calbiochem) and 1 mmol/L phenlymethylsulfonlyfluoride. Insoluble material was removed by centrifugation at 10,000×g for 10 minutes. Protein concentration of each sample was quantified by BCA (Pierce), resolved by SDS-PAGE, and transferred to nitrocellulose membranes (iBlot, Invitrogen Life Technology). Total (32D7, Cell Signaling Technologies) and phosphorylated ([…]; D1E9, Cell Signaling Technology) RSK protein were detected using the indicated antibody clones. All blots were repeated in duplicate and relative levels of individual proteins compared to a loading control (α-tubulin) (11H10; Cell Signaling Technology) were quantitated using the ECL Plus chemifluorescent reagent (Amersham Biosciences) and the ChemiDoc™ Touch Imaging System (BioRad).
A general note: A western blot detects proteins with antibodies after separation by electrophoresis.

For data set [2], the system named is drug-resistant cell lines of Table 4. In words: Cell line growth retardation assay, average over resistant cohort. The format is cell-based, Human. The note with it: Homo sapiens, 144 h; geometric mean of IC50s over resistant cohort (Table 4); 6 days growth; read-out: AvgRes IC50. In outline:
(§1)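 Cancer cell lines treated 6 days with compound at 10 μM down to 0.0032 μM (5-fold steps) vs vehicle; cells counted by imaging on day 0 and day 6. Growth inhibition as ratio of population doublings with vs without compound; per-line IC50 from curve fit, cohort value as geometric mean.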

A short description of data set [3]: Compound metabolic stability in hepatocytes. Format: in vitro ADME. The note with it: hepatocytes from mice and rats (species not given); class symbols without key. The method, then:
The metabolic stability of compounds was determined in hepatocytes from mice and rats. Compounds were diluted to 5 μM in Williams' Medium E from 10 mM stock solutions. 10 μL of each compound was aliquoted into a well of a 96-well plate and reactions were started by aliquoting 40 μL of a 625,000 cells/mL suspension into each well. The plate was incubated at 37° C. with 5% CO2. At each corresponding time point, the reaction was stopped by quenching with ACN containing internal standards (IS) at a 1:3. Plates were shaken at 500 rpm for 10 min, and then centrifuged at 3,220×g for 20 minutes. Supernatants were transferred to another 96-well plate containing a dilution solution. Supernatants were analyzed by LC/MS/MS.
Compound half-life was estimated using the following equation: % Remaining Compound=Peak Area Ratios of Tested Compound vs. Internal Standard at End Point/Peak Area Ratios of Tested Compound vs. Internal Standard at Start Point Mouse Xenograft Studies

For data set [4], the target named is ERK2 (Homo sapiens, UniProt P28482). As to the kind of experiment: ERK1 and 2 Enzymatic Inhibition Assay (ERK2). The format is biochemical. The note with it: 10 assay concentrations 2×10^−6 M to 6×10^−11 M, 1% DMSO. Put shortly:
(§2)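 Ki determination: compounds serially diluted semi-logarithmically in DMSO and tested at 10 final concentrations from 2×10^−6 M to 6×10^−11 M with 1% final DMSO.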

Data set [5] has as its system drug-sensitive cell lines of Table 4. As to the kind of experiment: Cell line growth retardation assay, average over sensitive cohort. The note with it: Homo sapiens, 144 h; geometric mean of IC50s over sensitive cohort (Table 4); 6 days growth; read-out: AvgSens IC50. The format is cell-based, Human. Put shortly:
as §1

Data set [6] is described as follows: Mouse Maximum Tolerated Dose Studies. Format: in vivo. Conditions: mice, oral gavage (PO). The method, then: Mouse Maximum Tolerated Dose Studies
For maximum tolerated dose (MTD) determination studies, non-tumor bearing CD-1 athymic nude mice were randomized into […] treatment groups (5 mice per group) and treated with either 400, 300, 200, 100, 50 or 25 mg/kg of compound by daily PO, or 200, 100, 50, 25, or 12.5 mg/kg of compound twice daily PO. Mice were weighed daily and % body weight loss was calculated relative to individual mouse body weights at the start of treatment. […] MTD was determined as the highest dose at which a mean body weight loss of <10% over 14 days of dosing was observed.

The target of data set [7] is ERK1 (Homo sapiens, UniProt P27361). As to the kind of experiment: ERK1 and 2 Enzymatic Inhibition Assay (ERK1). The format is biochemical. Conditions: 10 assay concentrations 2×10^−6 M to 6×10^−11 M, 1% DMSO. In outline: as §2

Some results are limits rather than exact numbers.

ERK2, sequence (P28482 whole entry): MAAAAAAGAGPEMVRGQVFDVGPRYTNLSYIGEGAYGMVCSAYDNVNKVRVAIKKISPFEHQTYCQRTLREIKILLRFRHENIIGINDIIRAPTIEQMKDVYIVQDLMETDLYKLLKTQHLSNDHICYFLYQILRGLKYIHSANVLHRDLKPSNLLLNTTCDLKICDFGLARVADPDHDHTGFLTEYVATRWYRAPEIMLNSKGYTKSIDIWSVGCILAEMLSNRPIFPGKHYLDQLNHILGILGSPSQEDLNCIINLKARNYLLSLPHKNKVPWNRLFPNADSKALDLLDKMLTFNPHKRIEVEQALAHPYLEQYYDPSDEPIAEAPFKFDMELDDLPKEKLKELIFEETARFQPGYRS
ERK1, sequence (P27361 whole entry): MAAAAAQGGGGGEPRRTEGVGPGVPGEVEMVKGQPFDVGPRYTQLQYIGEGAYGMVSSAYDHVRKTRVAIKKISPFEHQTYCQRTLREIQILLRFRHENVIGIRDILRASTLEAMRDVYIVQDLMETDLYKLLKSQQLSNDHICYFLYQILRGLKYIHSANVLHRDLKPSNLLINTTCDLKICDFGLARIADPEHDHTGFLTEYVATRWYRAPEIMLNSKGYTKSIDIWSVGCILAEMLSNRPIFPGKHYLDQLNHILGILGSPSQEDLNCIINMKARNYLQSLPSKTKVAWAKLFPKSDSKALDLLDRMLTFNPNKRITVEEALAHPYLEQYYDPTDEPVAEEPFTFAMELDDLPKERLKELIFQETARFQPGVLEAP

On to `CC(NC(=O)c1ncc(-c2c[nH]c3ncc(N4CCOCC4)cc23)cn1)c1ccccc1` (stereo in doubt) [Compound 6, (R)-5-(5-morpholino-1H-pyrrolo[2,3-b]pyridin-3-yl)-N-(1-phenylethyl)pyrimidine-2-carboxamide], for which the “level of phosphorylated RSK (pRSK)” value in data set [1] is “decrease”. The IC50 in data set [2] is over 500 nM; in data set [5] it was at most 250 nM. For the same compound, the half-life at 1 µM in data set [3] was over 25 min. The Kd in data set [4] and in data set [7] was at most 10 nM in each case. The “maximum tolerated QD dose” value in data set [6] (daily (QD)) was determined as 200 mg/kg. The “maximum tolerated BID dose” value in data set [6] (twice daily (BID)) is 100 mg/kg.

A word on the IC50: it is the point on the concentration scale where inhibition reaches its midpoint. As usually defined, the half-life is the time in which the quantity being followed falls by half. Usually Kd stands for the equilibrium constant for the complex coming apart.
